In data set [1] the test system is HEI-193 cells. Nature of the data set: HEI-193 cell viability. The conditions noted are these: WST-8, 3 days. The data set is classed as cell-based, human. In general terms: Tetrazolium assays rely on reduction of a dye to a coloured formazan, in cell work by metabolically active cells.
The test system of data set [2] is normal human fibroblasts. The data set is described as follows: Normal human fibroblast viability. The format is cell-based. Particulars: WST-8, 3 days.
For data set [3], the system named is HEI-193 cells. Nature of the data set: Western blotting of differentiation and cell cycle markers in HEI-193 cells. The format is cell-based, human. The conditions noted are these: 7 days. Background: A western blot detects proteins with antibodies after separation by electrophoresis.
For data set [4], the system named is normal human fibroblasts. Nature of the data set: Apoptosis markers in normal human fibroblasts. The format is cell-based. Particulars: 1 day.
In data set [5] the test system is NF2-associated vestibular schwannomas. The conditions noted are these: progressive NF2-associated vestibular schwannomas; cited from earlier work.

This is an account of results in PMC12187371 (Neuro-Oncology, 2024).

For the compound `COc1cc(N2CCC(N3CCN(C)CC3)CC2)ccc1Nc1ncc(Cl)c(Nc2ccccc2P(C)(C)=O)n1` [Brigatinib], in the data set with HEI-193 cells [1], the “proliferation of HEI-193 cells” value is listed as “dose-dependently reduced”. The “toxicity in human normal fibroblasts” value in the data set on normal human fibroblasts [2] is “showed toxicity”. In addition, in the data set with HEI-193 cells [3], the “expression of SOX10, MBP, p21 and p27” value is given as “decreased the expression of all these markers”; the “expression of stem cell factor SOX2” value is “decreased the expression of all these markers”. Further, the “cytochrome c release from mitochondria” value in the data set with normal human fibroblasts [4] is “induced cytochrome c release”.
For `Cn1cnc2c(F)c(Nc3ccc(Br)cc3Cl)c(C(=O)NOCCO)cc21` [Selumetinib], the “proliferation of HEI-193 cells” value in the data set with HEI-193 cells [1] is “did not exhibit any effect”.
Take Bevacizumab: the “patients with improved hearing and reduced tumor volume” value in data set [5] was “about 40 % of patients”.
